Experimental data taken from patent US20240041037A1, “DISINFECTANT AND USE THEREOF” (priority 2021, published 2024).

Key:
Type in all cases: cell-based
[1] = tested on: total germ count of walnut shell meal slurry; assay: Germ content determination (Ph. Eur. 6.8, Chapter 2.6.12) of aqueous walnut shell meal slurry: total germ count
Description: (§1) Test Equipment: • A BF 720 incubator is used. • A spiral plater is used as a plating device, with which a predefined volume of the suspension to be checked for germs is applied to the culture medium. For example, an Eddy-Jet 2W spiral plater is used.
(§2) The germ count takes place in the screening by the Envirocheck® system for confirmation according to the Ph Eur.6.8. Chapter 2.6.12.
(§3) Neutralization: • A neutralization, if it is to be carried out, takes place using 50% NaOH.
(§4) Incubation: • Bacteria: 2-3 days at 30+/−2° C. in the corresponding incubators; • Yeast/fungus: 3-5 days at room temperature away from light.
Following a predefined time span T in minutes, one sample each was collected and incubated for 48 hours in an incubator in order to subsequently determine its germ load.
(§5) The germ count after incubation takes place using the Environcheck® test sticks immediately or in an outside laboratory. For the external check, the product is cooled and stored for at least 1 day at 8° C. and transferred in a polystyrene box.
(§6) The germ content determination is based on the Ph. Eur.6.8—germ content, Chapter 2.6.12
The subsequent incubation of the sample took place over 48 hours.
(§7) The sample was then again adjusted to pH 7 using sodium hydroxide solution and incubated in the incubator for 48 hours. The germs in the individual samples were subsequently counted again using the Envirocheck® system internally or using an outside institute by a previously cooled stored product for 1 day.
The germ count determination is based on the Ph. Eur. 6.8—Germ content, Chapter 2.6.12

[2] = tested on: Fungi; assay: Germ content determination (Ph. Eur. 6.8, Chapter 2.6.12) of aqueous walnut shell meal slurry: fungi
Description: as §1, §2
(§8) Subculturing: • The subculturing is carried out by a spiral plater using a corresponding program, depending on the requirements (for example, in one program, higher germ quantities may be more easily broken down by the gradient of the applied product or, in another program, a greater amount may be applied, which drops the lower determination limit). • One (in the case of double samples, two) fungus culture medium and one bacteria culture medium each are taken for each sample. • Standard total germ count checks are performed with no double determination.
as §3, §4
(§9) . This amount was maintained at pH 2.9 in the subsequent tests. Following a predefined time span T in minutes, one sample each was collected and incubated for 48 hours in an incubator in order to subsequently determine its germ load. The time span T thus corresponds to the contact time of the disinfectant, in the present case only citric acid.
as §5, §6
as §7, with “[…]. The sample” for “The sample”
(§10) . The germ count determination is based on the Ph. Eur. 6.8—Germ content, Chapter 2.6.12

[3] = tested on: Bacteria (aerobic spore-formers); assay: Germ content determination (Ph. Eur. 6.8, Chapter 2.6.12) of aqueous walnut shell meal slurry: bacteria
Description: as §1, §2, §8, §3, §4, §9, §5, §6
as §7, with “[…]. The sample” for “The sample”
as §10

[4] = tested on: Yeasts; assay: Germ content determination (Ph. Eur. 6.8, Chapter 2.6.12) of aqueous walnut shell meal slurry: yeasts
Description: as §1, §2, §8, §3, §4, §9, §5, §6
as §7, with “[…]. The sample” for “The sample”
as §10

[5] = pH 2.9, contact time 15 minutes
[6] = pH 2.9, contact time 30 minutes
[7] = pH 2.9, contact time 45 minutes
[8] = pH 2.9, contact time 60 minutes

Structure (SMILES) | contact time after which germ load reduction clearly identifiable ([1]; pH 2.9) [min] | Fungi [2, 5] | Fungi [2, 6] | Fungi [2, 7] | Fungi [2, 8] | TGC (total germ count) [1, 5] | TGC (total germ count) [1, 6] | TGC (total germ count) [1, 7] | Bacteria [3, 5] | Bacteria [3, 6] | Bacteria [3, 7] | Bacteria [3, 8] | Yeasts [4, 5] | Yeasts [4, 6] | Yeasts [4, 7] | Yeasts [4, 8]
CC(O)C(=O)O (stereo not shown) [lactic acid] | 5 | – | – | – | – | – | – | – | – | – | – | – | – | – | – | –
O=C(O)CC(O)(CC(=O)O)C(=O)O [citric acid] | – | 50 CFU/g or mL | 55 CFU/g or mL | 35 CFU/g or mL | 20 CFU/g or mL | 250 CFU/g or mL | 295 CFU/g or mL | 235 CFU/g or mL | 60 CFU/g or mL | 100 CFU/g or mL | 200 CFU/g or mL | 170 CFU/g or mL | 140 CFU/g or mL | 140 CFU/g or mL | — (<7 CFU/g or mL) | 35 CFU/g or mL
